For this test, the system named is tandem Na+ and c-di-AMP riboswitch (DUF1646_cdA_WT transcript) (RNA, riboswitch) AUUUAUAAGGUUACUUUCGGUUGGAAUGGUUAUUACCAUUUUCAAGAGAAGCGGGCUCUGGGGUGGGAGGCUACCAAAUAUUGGUAUAGCUAUCCACCUUUAUUUAUUUUUUUUAAGACAACAACUGAAUAUAUUUAUACGCUGAAUCCGUUAGGAACGGGAGACCCAAAUAAUAGGGGUGAAUCCAAAGCGGUUGCUUUGGUAGGGUUAAGCUCUUUCGACCCGAAUCCGUCAGCUAAUCUCGUAAGCGGUGGAAGAGAAGGUGAUUGAUAUGCUUAAUUACACCUUUAGUUAAGGUAUAUAUUUUAGCAUACGCUGCAGAUACUUCUCUGCAGCUUUUUGUUUUAUAUACCACAAAUGUUGAGGAUGACAAUCUUCAAUGAGAAUCUGAAGGAGGAAUUAAAUAAUAUGGGAUCCAAAGGA
Nature of the test: in vitro single-round transcription termination. The following applies: K+ 100 mM, Mg2+ 4 mM; 40 mM Tris-HCl pH 7.5, 37 °C; E. coli RNA polymerase; functional co-transcriptional response, no constant.

The text below walks through data of publication PMC9337991 (2022).

Turning to `Nc1ncnc2c1ncn2[C@@H]1O[C@@H]2COP(=O)(O)O[C@H]3[C@@H](O)[C@H](n4cnc5c(N)ncnc54)O[C@@H]3COP(=O)(O)O[C@H]2[C@H]1O`, the binding result is recorded as “yes”.
